Data reported in ChEMBL document CHEMBL4507256 (2021).

How the values were obtained:
[1] = molecular target: Mitogen-activated protein kinase 11 (Homo sapiens) (UniProt Q15759); settings: Compound concentration 1000.0 nM
[2] = molecular target: Tyrosine-protein kinase ABL1 (Homo sapiens) (UniProt P00519); settings: Compound concentration 1000.0 nM
[3] = molecular target: Serine/threonine-protein kinase RIO3 (Homo sapiens) (UniProt O14730); settings: Compound concentration 1000.0 nM
[4] = molecular target: Calcium/calmodulin-dependent protein kinase type II subunit beta (Homo sapiens) (UniProt Q13554); settings: Compound concentration 1000.0 nM
[5] = molecular target: Mitogen-activated protein kinase kinase kinase 5 (Homo sapiens) (UniProt Q99683); settings: Compound concentration 1000.0 nM
Rattus norvegicus = species on record: Rattus norvegicus; settings: Compound concentration 10.0 uM
[6] = molecular target: Phosphatidylinositol 5-phosphate 4-kinase type-2 gamma (Homo sapiens) (UniProt Q8TBX8); settings: Compound concentration 1000.0 nM
[7] = tested on: Epidermal growth factor receptor (Homo sapiens), P00533 [T790M]; settings: Compound concentration 1000.0 nM
[8] = molecular target: Fibroblast growth factor receptor 4 (Homo sapiens) (UniProt P22455); settings: Compound concentration 1000.0 nM
[9] = molecular target: Protein kinase C delta type (Homo sapiens) (UniProt Q05655); settings: Compound concentration 1000.0 nM
Sequence of Protein kinase C delta type (Homo sapiens) (Q05655 whole entry, looked up): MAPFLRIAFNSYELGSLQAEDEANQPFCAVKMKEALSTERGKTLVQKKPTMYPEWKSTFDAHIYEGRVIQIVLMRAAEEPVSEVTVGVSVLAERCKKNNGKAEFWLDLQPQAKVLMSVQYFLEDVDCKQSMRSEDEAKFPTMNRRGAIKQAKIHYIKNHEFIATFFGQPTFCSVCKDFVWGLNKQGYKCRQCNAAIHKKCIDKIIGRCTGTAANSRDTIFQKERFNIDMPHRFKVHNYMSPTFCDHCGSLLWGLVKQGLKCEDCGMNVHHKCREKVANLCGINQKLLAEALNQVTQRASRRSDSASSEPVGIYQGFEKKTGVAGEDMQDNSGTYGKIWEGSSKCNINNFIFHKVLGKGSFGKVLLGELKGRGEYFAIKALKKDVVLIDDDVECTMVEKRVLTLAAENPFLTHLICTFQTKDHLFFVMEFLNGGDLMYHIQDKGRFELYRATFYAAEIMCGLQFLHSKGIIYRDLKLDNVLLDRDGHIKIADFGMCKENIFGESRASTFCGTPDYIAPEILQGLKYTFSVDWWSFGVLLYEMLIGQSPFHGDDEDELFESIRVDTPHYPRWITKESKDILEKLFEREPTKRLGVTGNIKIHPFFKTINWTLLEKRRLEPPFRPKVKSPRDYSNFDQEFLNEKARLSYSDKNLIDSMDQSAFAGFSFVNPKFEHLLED

[10] = molecular target: Tyrosine-protein kinase JAK1 (Homo sapiens) (UniProt P23458); settings: Compound concentration 1000.0 nM
[11] = molecular target: Serine/threonine-protein kinase 32A (Homo sapiens) (UniProt Q8WU08); settings: Compound concentration 1000.0 nM
[12] = molecular target: Tyrosine-protein kinase Yes (Homo sapiens) (UniProt P07947); settings: Compound concentration 1000.0 nM
[13] = molecular target: D(1B) dopamine receptor (Homo sapiens) (UniProt P21918); settings: Compound concentration 10.0 uM
Sequence of D(1B) dopamine receptor (Homo sapiens) (P21918 whole entry): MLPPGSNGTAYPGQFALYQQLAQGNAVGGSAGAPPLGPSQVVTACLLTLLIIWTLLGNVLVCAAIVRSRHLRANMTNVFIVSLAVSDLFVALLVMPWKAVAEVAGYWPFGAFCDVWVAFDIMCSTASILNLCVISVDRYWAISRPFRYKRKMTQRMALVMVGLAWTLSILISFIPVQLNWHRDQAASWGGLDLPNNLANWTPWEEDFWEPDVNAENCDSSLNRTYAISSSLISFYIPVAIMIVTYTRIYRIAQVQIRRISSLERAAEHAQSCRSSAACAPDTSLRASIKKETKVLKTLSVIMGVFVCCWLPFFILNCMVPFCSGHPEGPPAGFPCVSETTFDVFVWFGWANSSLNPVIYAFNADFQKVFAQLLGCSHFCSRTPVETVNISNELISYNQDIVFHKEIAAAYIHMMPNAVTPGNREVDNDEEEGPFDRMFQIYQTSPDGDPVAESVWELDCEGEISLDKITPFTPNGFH

[14] = molecular target: Tyrosine-protein kinase Blk (Homo sapiens) (UniProt P51451); settings: Compound concentration 1000.0 nM
[15] = molecular target: Cyclin-dependent kinase 11B (Homo sapiens) (UniProt P21127); settings: Compound concentration 1000.0 nM
[16] = molecular target: Myosin light chain kinase family member 4 (Homo sapiens) (UniProt Q86YV6); settings: Compound concentration 1000.0 nM
[17] = molecular target: Platelet-derived growth factor receptor alpha (Homo sapiens) (UniProt P16234); settings: Compound concentration 1000.0 nM
[18] = molecular target: Ephrin type-B receptor 3 (Homo sapiens) (UniProt P54753); settings: Compound concentration 1000.0 nM
[19] = molecular target: Tyrosine-protein kinase Fer (Homo sapiens) (UniProt P16591); settings: Compound concentration 1000.0 nM
[20] = molecular target: Insulin receptor-related protein (Homo sapiens) (UniProt P14616); settings: Compound concentration 1000.0 nM
[21] = molecular target: Eukaryotic translation initiation factor 2-alpha kinase 1 (Homo sapiens) (UniProt Q9BQI3); settings: Compound concentration 1000.0 nM
[22] = tested on: Receptor-type tyrosine-protein kinase FLT3 (Homo sapiens), P36888 [D835Y]; settings: Compound concentration 1000.0 nM
[23] = molecular target: Mitogen-activated protein kinase kinase kinase kinase 4 (Homo sapiens) (UniProt O95819); settings: Compound concentration 1000.0 nM
[24] = molecular target: Cyclin-dependent kinase-like 1 (Homo sapiens) (UniProt Q00532); settings: Compound concentration 1000.0 nM
[25] = molecular target: Serine/threonine-protein kinase Sgk3 (Homo sapiens) (UniProt Q96BR1); settings: Compound concentration 1000.0 nM
[26] = molecular target: Rho-associated protein kinase 1 (Homo sapiens) (UniProt Q13464); settings: Compound concentration 1000.0 nM
[27] = molecular target: Casein kinase I isoform gamma-1 (Homo sapiens) (UniProt Q9HCP0); settings: Compound concentration 1000.0 nM
Sequence of Casein kinase I isoform gamma-1 (Homo sapiens) (Q9HCP0 whole entry, looked up, canonical isoform): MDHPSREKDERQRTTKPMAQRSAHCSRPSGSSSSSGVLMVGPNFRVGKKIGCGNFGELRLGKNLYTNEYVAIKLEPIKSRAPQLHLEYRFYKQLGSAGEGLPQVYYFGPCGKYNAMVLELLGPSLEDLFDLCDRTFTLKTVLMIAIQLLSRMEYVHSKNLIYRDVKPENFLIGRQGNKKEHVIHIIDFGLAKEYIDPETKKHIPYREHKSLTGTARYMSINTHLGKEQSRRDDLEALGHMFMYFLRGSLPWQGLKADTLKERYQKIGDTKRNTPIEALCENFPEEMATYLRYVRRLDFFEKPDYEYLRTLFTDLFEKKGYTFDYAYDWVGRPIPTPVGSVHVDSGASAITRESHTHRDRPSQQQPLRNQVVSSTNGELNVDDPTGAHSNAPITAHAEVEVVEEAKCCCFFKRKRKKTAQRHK

[28] = molecular target: G protein-coupled receptor kinase 3 (Homo sapiens) (UniProt P35626); settings: Compound concentration 1000.0 nM
[29] = molecular target: Cyclin-dependent kinase 2 (Homo sapiens) (UniProt P24941); settings: Compound concentration 1000.0 nM
[30] = molecular target: 5-hydroxytryptamine receptor 2B (Homo sapiens) (UniProt P41595); settings: Compound concentration 10.0 uM
Sequence of 5-hydroxytryptamine receptor 2B (Homo sapiens) (P41595 whole entry): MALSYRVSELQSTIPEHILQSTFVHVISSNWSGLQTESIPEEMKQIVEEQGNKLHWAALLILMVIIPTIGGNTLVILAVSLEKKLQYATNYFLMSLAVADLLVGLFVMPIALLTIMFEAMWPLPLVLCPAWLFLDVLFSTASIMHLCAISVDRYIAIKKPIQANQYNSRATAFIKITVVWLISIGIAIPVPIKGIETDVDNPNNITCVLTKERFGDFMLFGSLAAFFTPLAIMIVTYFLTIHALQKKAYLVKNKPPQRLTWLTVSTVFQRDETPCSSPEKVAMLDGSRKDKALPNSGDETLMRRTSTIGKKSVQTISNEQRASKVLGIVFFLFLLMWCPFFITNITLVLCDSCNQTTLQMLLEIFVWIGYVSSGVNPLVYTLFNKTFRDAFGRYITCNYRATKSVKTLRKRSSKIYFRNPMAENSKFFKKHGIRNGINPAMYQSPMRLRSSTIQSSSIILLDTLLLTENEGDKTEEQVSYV

[31] = molecular target: Serine/threonine-protein kinase 4 (Homo sapiens) (UniProt Q13043); settings: Compound concentration 1000.0 nM
[32] = molecular target: Ribosomal protein S6 kinase alpha-6 (Homo sapiens) (UniProt Q9UK32); settings: Compound concentration 1000.0 nM
Sequence of Ribosomal protein S6 kinase alpha-6 (Homo sapiens) (Q9UK32 whole entry): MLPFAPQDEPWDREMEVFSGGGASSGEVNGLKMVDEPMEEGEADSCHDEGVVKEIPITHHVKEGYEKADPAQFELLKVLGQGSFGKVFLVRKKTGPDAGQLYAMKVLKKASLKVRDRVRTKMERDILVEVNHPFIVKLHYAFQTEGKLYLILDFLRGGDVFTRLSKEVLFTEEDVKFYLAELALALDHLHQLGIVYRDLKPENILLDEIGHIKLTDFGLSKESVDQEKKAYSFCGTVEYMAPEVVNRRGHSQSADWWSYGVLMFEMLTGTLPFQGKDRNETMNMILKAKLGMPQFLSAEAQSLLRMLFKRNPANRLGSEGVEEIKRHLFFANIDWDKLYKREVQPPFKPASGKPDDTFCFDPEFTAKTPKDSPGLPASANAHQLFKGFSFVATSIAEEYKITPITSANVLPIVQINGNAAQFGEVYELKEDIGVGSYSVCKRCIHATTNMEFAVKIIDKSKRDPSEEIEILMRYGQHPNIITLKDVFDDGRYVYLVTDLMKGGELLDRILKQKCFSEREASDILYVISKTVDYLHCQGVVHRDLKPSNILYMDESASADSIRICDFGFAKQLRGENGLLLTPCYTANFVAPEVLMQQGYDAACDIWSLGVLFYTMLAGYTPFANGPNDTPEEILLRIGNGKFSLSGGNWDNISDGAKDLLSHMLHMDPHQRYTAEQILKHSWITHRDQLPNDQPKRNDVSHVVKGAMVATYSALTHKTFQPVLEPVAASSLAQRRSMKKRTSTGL

[33] = molecular target: MAP kinase-activated protein kinase 2 (Homo sapiens) (UniProt P49137); settings: Compound concentration 1000.0 nM
[34] = molecular target: Ribosomal protein S6 kinase beta-1 (Homo sapiens) (UniProt P23443); settings: Compound concentration 1000.0 nM
Sequence of Ribosomal protein S6 kinase beta-1 (Homo sapiens) (P23443 whole entry, looked up): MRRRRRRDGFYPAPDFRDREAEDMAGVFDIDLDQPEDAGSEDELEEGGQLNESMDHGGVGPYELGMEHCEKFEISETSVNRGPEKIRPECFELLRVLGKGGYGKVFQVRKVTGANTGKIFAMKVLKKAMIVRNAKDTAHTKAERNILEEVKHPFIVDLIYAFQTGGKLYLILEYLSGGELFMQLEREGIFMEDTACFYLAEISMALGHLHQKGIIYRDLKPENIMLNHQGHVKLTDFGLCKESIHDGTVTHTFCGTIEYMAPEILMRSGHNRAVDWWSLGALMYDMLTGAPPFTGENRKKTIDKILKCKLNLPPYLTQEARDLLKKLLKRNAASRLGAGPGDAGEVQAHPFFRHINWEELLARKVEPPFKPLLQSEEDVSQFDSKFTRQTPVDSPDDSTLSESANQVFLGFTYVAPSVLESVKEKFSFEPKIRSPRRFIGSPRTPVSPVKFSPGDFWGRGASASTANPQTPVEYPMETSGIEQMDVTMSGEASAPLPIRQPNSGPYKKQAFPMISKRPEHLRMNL

[35] = tested on: Mast/stem cell growth factor receptor Kit (Homo sapiens), P10721 [V559D,V654A]; settings: Compound concentration 1000.0 nM
[36] = tested on: ALK tyrosine kinase receptor (Homo sapiens), Q9UM73 [L1196M]; settings: Compound concentration 1000.0 nM
[37] = molecular target: Tyrosine-protein kinase Lck (Homo sapiens) (UniProt P06239); settings: Compound concentration 1000.0 nM
[38] = molecular target: Mitogen-activated protein kinase 6 (Homo sapiens) (UniProt Q16659); settings: Compound concentration 1000.0 nM
[39] = molecular target: Proto-oncogene tyrosine-protein kinase ROS (Homo sapiens) (UniProt P08922); settings: Compound concentration 1000.0 nM
[40] = molecular target: Cyclin-dependent kinase 19 (Homo sapiens) (UniProt Q9BWU1); settings: Compound concentration 1000.0 nM
[41] = molecular target: Myosin light chain kinase (Homo sapiens) (UniProt Q32MK0); settings: Compound concentration 1000.0 nM

Sequence of Tyrosine-protein kinase ABL1 (Homo sapiens) (P00519 whole entry): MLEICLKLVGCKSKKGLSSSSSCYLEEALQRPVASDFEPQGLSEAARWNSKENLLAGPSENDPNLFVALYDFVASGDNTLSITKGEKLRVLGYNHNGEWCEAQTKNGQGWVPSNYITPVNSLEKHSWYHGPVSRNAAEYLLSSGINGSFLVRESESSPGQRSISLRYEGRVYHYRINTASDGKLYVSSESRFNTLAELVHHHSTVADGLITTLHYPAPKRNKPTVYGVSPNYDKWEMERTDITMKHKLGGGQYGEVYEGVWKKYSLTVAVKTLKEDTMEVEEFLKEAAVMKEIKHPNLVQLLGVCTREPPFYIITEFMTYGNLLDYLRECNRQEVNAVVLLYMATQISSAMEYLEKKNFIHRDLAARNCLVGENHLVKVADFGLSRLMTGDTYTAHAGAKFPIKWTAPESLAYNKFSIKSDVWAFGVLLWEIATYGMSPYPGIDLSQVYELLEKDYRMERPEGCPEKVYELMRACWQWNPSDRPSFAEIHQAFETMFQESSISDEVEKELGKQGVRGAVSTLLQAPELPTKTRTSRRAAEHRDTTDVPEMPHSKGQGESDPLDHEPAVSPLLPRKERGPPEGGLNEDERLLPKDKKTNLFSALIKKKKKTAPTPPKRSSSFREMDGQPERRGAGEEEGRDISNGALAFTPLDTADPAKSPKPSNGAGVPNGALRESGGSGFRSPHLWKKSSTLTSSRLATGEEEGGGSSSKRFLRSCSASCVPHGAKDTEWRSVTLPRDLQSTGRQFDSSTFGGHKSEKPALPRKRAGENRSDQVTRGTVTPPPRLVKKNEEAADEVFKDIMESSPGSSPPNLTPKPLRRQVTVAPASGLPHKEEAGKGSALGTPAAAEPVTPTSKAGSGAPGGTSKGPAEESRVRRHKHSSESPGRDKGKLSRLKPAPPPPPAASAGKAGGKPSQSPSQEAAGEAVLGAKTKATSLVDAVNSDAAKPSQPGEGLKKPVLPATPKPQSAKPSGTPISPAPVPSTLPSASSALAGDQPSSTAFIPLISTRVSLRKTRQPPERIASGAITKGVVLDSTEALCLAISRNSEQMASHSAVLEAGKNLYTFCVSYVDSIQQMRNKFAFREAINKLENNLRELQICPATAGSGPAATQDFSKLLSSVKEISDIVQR
Sequence of Mitogen-activated protein kinase 11 (Homo sapiens) (Q15759 whole entry): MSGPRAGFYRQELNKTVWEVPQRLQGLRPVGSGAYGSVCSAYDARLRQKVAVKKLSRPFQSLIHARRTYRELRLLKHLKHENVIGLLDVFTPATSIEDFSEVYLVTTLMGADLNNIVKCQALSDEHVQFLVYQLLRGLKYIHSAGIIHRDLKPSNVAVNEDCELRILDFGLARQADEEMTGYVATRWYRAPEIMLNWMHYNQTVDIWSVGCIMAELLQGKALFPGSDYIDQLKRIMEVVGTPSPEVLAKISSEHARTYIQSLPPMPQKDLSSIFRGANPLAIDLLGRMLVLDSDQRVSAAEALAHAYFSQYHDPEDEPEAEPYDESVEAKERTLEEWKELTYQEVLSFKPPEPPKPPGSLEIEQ

Compound CCC(=N\O)/C(C)=C/c1ccc(F)c(C)c1 [A-226] has a residual activity [1] of 82%, a residual activity [2] of 100% and a residual activity [3] of 100%. For the same compound, the residual activity [4] was 100%, the residual activity [5] was 100% and the inhibition (Rattus norvegicus) was 50.6%. The residual activity [6] was 85%, the residual activity [7] was 100% and the residual activity [8] was 83%. The residual activity [9] was 98%, the residual activity [10] was 100% and the residual activity [11] was 100%. For the same compound, the residual activity [12] was 100%, the inhibition [13] was 11.8% and the residual activity [14] was 91%. It also gave a residual activity [15] of 95%, a residual activity [16] of 99% and a residual activity [17] of 100%. It also gave a residual activity [18] of 96%, a residual activity [19] of 80% and a residual activity [20] of 100%. For the same compound, the residual activity [21] was 100%, the residual activity [22] was 100% and the residual activity [23] was 100%. It also gave a residual activity [24] of 91%, a residual activity [25] of 100% and a residual activity [26] of 100%. The residual activity [27] was 100%, the residual activity [28] was 100% and the residual activity [29] was 96%. For the same compound, the inhibition [30] was 43.8%, the residual activity [31] was 70% and the residual activity [32] was 98%. For the same compound, the residual activity [33] was 94%, the residual activity [34] was 100% and the residual activity [35] was 100%. For the same compound, the residual activity [36] was 100%, the residual activity [37] was 87% and the residual activity [38] was 100%. The residual activity [39] was 88%, the residual activity [40] was 100% and the residual activity [41] was 100%.

For CCC(=N\O)/C(C)=C/c1ccc(F)cc1 [A-079], the residual activity [1] was 82%, the residual activity [2] was 66% and the residual activity [3] was 78%. The residual activity [4] was 97%, the residual activity [5] was 93% and the inhibition (Rattus norvegicus) was 11.9%. The residual activity [6] was 83%, the residual activity [7] was 100% and the residual activity [8] was 96%. For the same compound, the residual activity [9] was 100%, the residual activity [10] was 88% and the residual activity [11] was 100%. The residual activity [12] was 87%, the inhibition [13] was 12.2% and the residual activity [14] was 87%. The residual activity [15] was 89%, the residual activity [16] was 94% and the residual activity [17] was 78%. It also gave a residual activity [18] of 75%, a residual activity [19] of 74% and a residual activity [20] of 83%. It also gave a residual activity [21] of 100%, a residual activity [22] of 91% and a residual activity [23] of 97%. It also gave a residual activity [24] of 81%, a residual activity [25] of 81% and a residual activity [26] of 100%. It also gave a residual activity [27] of 99%, a residual activity [28] of 92% and a residual activity [29] of 82%. It also gave an inhibition [30] of 24.7%, a residual activity [31] of 78% and a residual activity [32] of 94%. For the same compound, the residual activity [33] was 69%, the residual activity [34] was 66% and the residual activity [35] was 73%. It also gave a residual activity [36] of 71%, a residual activity [37] of 82% and a residual activity [38] of 73%. The residual activity [39] was 87%, the residual activity [40] was 79% and the residual activity [41] was 86%.
